Reference: article PMC3973950, “Synthesis of 5-arylidine amino-1,3,4-thiadiazol-2-[(N-substituted benzyol)]sulphonamides endowed with potent antioxidants and anticancer activity induces growth inhibition in HEK293, BT474 and NCI-H226 cells” (Medicinal Chemistry Research, 2013)

Experiments:
[1] = In vitro cytotoxicity by MTT assay, HEK 293; type: cell-based, human; settings: human, HEK 293 cells; for cytotoxicity at 72 h, 0.005 µM / cytotoxicity at 72 h, 0.015 µM / cytotoxicity at 72 h, 0.045 µM / cytotoxicity at 72 h, 0.13 µM / cytotoxicity at 72 h, 0.41 µM / cytotoxicity at 72 h, 1.23 µM / cytotoxicity at 72 h, 3.7 µM / cytotoxicity at 72 h, 11.11 µM / cytotoxicity at 72 h, 33.33 µM / cytotoxicity at 72 h, 100 µM: read-out: % cytotoxicity (100 − % cell survival) of HEK 293 cell line
In short: (§1)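 Cells grown in RPMI-1640 with 10 % […] newborn calf serum were seeded at about 10,000 cells per well and left 24 h to form a partial monolayer. Compounds were then added for 72 h at 37 °C, 5 % CO2, followed by MTT for 4 h, formazan solubilized in propanol and absorbance read at 490 nm.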

[2] = system: BT474 (breast cancer cell line); assay: In vitro cytotoxicity by MTT assay, BT474; type: cell-based; settings: Homo sapiens, 72 h, read-out: % cytotoxicity (100 − % cell survival) of BT474 cell line; for cytotoxicity at 0.005 µM: BT-474, 0.005 μM; for cytotoxicity at 0.015 µM: BT-474, 0.015 μM; for cytotoxicity at 0.045 µM: BT-474, 0.045 μM; for cytotoxicity at 0.13 µM: BT-474, 0.13 μM; for cytotoxicity at 0.41 µM: BT-474, 0.41 μM; for cytotoxicity at 1.23 µM: BT-474, 1.23 μM; for cytotoxicity at 3.7 µM: BT-474, 3.7 μM; for cytotoxicity at 11.11 µM: BT-474, 11.11 μM; for cytotoxicity at 33.33 µM: BT-474, 33.33 μM; for cytotoxicity at 100 µM: BT-474, 100 μM
In short: as §1

[3] = In vitro cytotoxicity by MTT assay, NCI-H226; type: cell-based; settings: human, NCI-H226 lung cancer cells, 0.015 μM, read-out: % Cytotoxicity (100 − % cell survival) of NCI-H226 cell line
In short: as §1

[4] = system: NCI-H226 (lung cancer cell line); assay: In vitro cytotoxicity by MTT assay, NCI-H226; type: cell-based; settings: Homo sapiens, 72 h; for cytotoxicity at 0.005 µM: NCI-H226, 0.005 μM; for cytotoxicity at 0.005 µM / cytotoxicity at 0.045 µM / cytotoxicity at 0.13 µM / cytotoxicity at 0.41 µM / cytotoxicity at 1.23 µM / cytotoxicity at 3.7 µM / cytotoxicity at 11.11 µM / cytotoxicity at 33.33 µM / cytotoxicity at 100 µM: read-out: % Cytotoxicity (100 − % cell survival) of NCI-H226 cell line; for cytotoxicity at 0.045 µM: NCI-H226, 0.045 μM; for cytotoxicity at 0.13 µM: NCI-H226, 0.13 μM; for cytotoxicity at 0.41 µM: NCI-H226, 0.41 μM; for cytotoxicity at 1.23 µM: NCI-H226, 1.23 μM; for cytotoxicity at 3.7 µM: NCI-H226, 3.7 μM; for cytotoxicity at 11.11 µM: NCI-H226, 11.11 μM; for cytotoxicity at 33.33 µM: NCI-H226, 33.33 μM; for cytotoxicity at 100 µM: NCI-H226, 100 μM
In short: as §1

[5] = system: HEK 293, M468 and NCI-H226; assay: In vitro cytotoxicity by MTT assay, summary over all cell lines; type: cell-based; settings: on all cell lines
Method: The cancer cell line cultures of HEK 293 ([…]), BT474 (breast cancer cell line) and NCI-H226 (lung cancer) were obtained from Pasteur Institute of India, Coonoor, India, and were cultured in RPMI-1640 and 10 % heat-[…] New born calf serum with antibiotics [penicillin ([…]), streptomycin (100 μg/mL) and amphotericin B (25 μg/mL)]. The cells were maintained at 37 °C in a humidified atmosphere with 5 % CO2 and were subcultured twice a week.
The monolayer cell culture (100 μL) was trypsinized, and the cell count was adjusted to […] using medium containing 10 % new born calf serum. To each well of the 96-well microtitre plate, the diluted cell suspension (approximately 10,000 cells) (0.1 mL) was added and kept for 24 h in incubator at 37 °C in 5 % CO2 atmosphere for cell monolayer formation. After 24 h, when a partial monolayer was formed at the bottom of the well, the supernatant was flicked off, the monolayer was washed once, and different drugs, i.e. synthesized compounds (100 μL), were added to the cells in microtitre plates. The plates were then incubated at 37 °C for 3 days in 5 % CO2 atmosphere, and microscopic examination was carried out and observations recorded every 24 h. After 72 h, the sample solution in the wells was flicked off; MTT dye ([…]) was added to each well; plates were gently shaken and incubated for 4 h at 37 °C in 5 % CO2 incubator. The supernatant was removed and propanol (50 μL) was added; the plates were gently shaken to solubilize the formed formazan. The absorbance was measured using a microplate reader at a wavelength of 490 nm (Edmondson et al., [1988]; Prasad et al., [2005]; Chiruvella et al., [2008]; Chang et al., [2007]).

For `CC(=O)Nc1ccc(S(=O)(=O)Nc2nnc(S(=O)(=O)NC(=O)c3cccc([N+](=O)[O-])c3)s2)cc1` [Compound 6f], the cytotoxicity at 72 h, 0.005 µM [1] was 39.3%, the cytotoxicity at 72 h, 0.015 µM [1] was 42.2% and the cytotoxicity at 72 h, 0.045 µM [1] was 45.4%. The cytotoxicity at 72 h, 0.13 µM [1] was 47.2%, the cytotoxicity at 72 h, 0.41 µM [1] was 49.1% and the cytotoxicity at 72 h, 1.23 µM [1] was 51.2%. It also gave a cytotoxicity at 72 h, 3.7 µM [1] of 54.2%, a cytotoxicity at 72 h, 11.11 µM [1] of 58.6% and a cytotoxicity at 72 h, 33.33 µM [1] of 59.3%. For the same molecule, the cytotoxicity at 72 h, 100 µM [1] was 62.4%, the CC50 (50% cytotoxic concentration) at 72 h ([1]; HEK 293, concentration at which 50 % of the cells are dead, read-out: CTCC50 (cytotoxicity concentration)) was 1120 nM and the cytotoxicity at 0.005 µM [2] was 29.1%. It also gave a cytotoxicity at 0.015 µM [2] of 30.1%, a cytotoxicity at 0.045 µM [2] of 32.1% and a cytotoxicity at 0.13 µM [2] of 33.4%. The cytotoxicity at 0.41 µM [2] was 35.8%, the cytotoxicity at 1.23 µM [2] was 37.2% and the cytotoxicity at 3.7 µM [2] was 40.6%. It also gave a cytotoxicity at 11.11 µM [2] of 42.2%, a cytotoxicity at 33.33 µM [2] of 45.3% and a cytotoxicity at 100 µM [2] of 50.8%. It also gave a cytotoxicity at 72 h, 0.015 µM [3] of 44.9%, a cytotoxicity at 0.005 µM [4] of 41.3% and a cytotoxicity at 0.045 µM [4] of 46.5%. For the same molecule, the cytotoxicity at 0.13 µM [4] was 48.3%, the cytotoxicity at 0.41 µM [4] was 51.3% and the cytotoxicity at 1.23 µM [4] was 54.6%. For the same molecule, the cytotoxicity at 3.7 µM [4] was 55.2%, the cytotoxicity at 11.11 µM [4] was 57.1% and the cytotoxicity at 33.33 µM [4] was 59.6%. The cytotoxicity at 100 µM [4] was 66% and the “cytotoxic activity compared with all synthesized compounds” value [5] was “more potent”.
`Nc1ccc(S(=O)(=O)Nc2nnc(S(=O)(=O)NC(=O)c3cccc([N+](=O)[O-])c3)s2)cc1` [Compound 7f] showed a cytotoxicity at 72 h, 0.005 µM [1] of 33.2%, a cytotoxicity at 72 h, 0.015 µM [1] of 35.1% and a cytotoxicity at 72 h, 0.045 µM [1] of 36%. For the same molecule, the cytotoxicity at 72 h, 0.13 µM [1] was 37%, the cytotoxicity at 72 h, 0.41 µM [1] was 37.5% and the cytotoxicity at 72 h, 1.23 µM [1] was 38.7%. The cytotoxicity at 72 h, 3.7 µM [1] was 39.5%, the cytotoxicity at 72 h, 11.11 µM [1] was 40.6% and the cytotoxicity at 72 h, 33.33 µM [1] was 41.2%. The cytotoxicity at 72 h, 100 µM [1] was 43.8%, the cytotoxicity at 0.005 µM [2] was 42.4% and the cytotoxicity at 0.015 µM [2] was 45.8%. It also gave a cytotoxicity at 0.045 µM [2] of 47.2%, a cytotoxicity at 0.13 µM [2] of 50.1% and a cytotoxicity at 0.41 µM [2] of 52.2%. For the same molecule, the cytotoxicity at 1.23 µM [2] was 54.2%, the cytotoxicity at 3.7 µM [2] was 56.7% and the cytotoxicity at 11.11 µM [2] was 58.6%. For the same molecule, the cytotoxicity at 33.33 µM [2] was 60.3%, the cytotoxicity at 100 µM [2] was 64.1% and the cytotoxicity at 72 h, 0.015 µM [3] was 39.3%. It also gave a cytotoxicity at 0.005 µM [4] of 38.8%, a cytotoxicity at 0.045 µM [4] of 40.1% and a cytotoxicity at 0.13 µM [4] of 42.6%. It also gave a cytotoxicity at 0.41 µM [4] of 46.1%, a cytotoxicity at 1.23 µM [4] of 52.1% and a cytotoxicity at 3.7 µM [4] of 56.4%. The cytotoxicity at 11.11 µM [4] was 60.7%, the cytotoxicity at 33.33 µM [4] was 65.8% and the cytotoxicity at 100 µM [4] was 68%. For the same molecule, the CC50 ([4]; NCI-H226, concentration at which 50 % of the cells are dead, read-out: CTC50 (cytotoxicity concentration)) was 1780 nM and the “cytotoxic activity compared with all synthesized compounds” value [5] was “more potent”.
`O=C(NS(=O)(=O)c1nnc(N=Cc2ccco2)s1)c1ccccc1` [Compound 9j, N-({5-[(Furan-2-ylmethylidene)amino]-1,3,4-thiadiazol-2-yl}sulfonyl)benzamide] gave a cytotoxicity at 72 h, 0.005 µM [1] of 31.4%, a cytotoxicity at 72 h, 0.015 µM [1] of 32.8% and a cytotoxicity at 72 h, 0.045 µM [1] of 33.7%. It also gave a cytotoxicity at 72 h, 0.13 µM [1] of 34.3%, a cytotoxicity at 72 h, 0.41 µM [1] of 34.5% and a cytotoxicity at 72 h, 1.23 µM [1] of 35%. The cytotoxicity at 72 h, 3.7 µM [1] was 35.3%, the cytotoxicity at 72 h, 11.11 µM [1] was 36.1% and the cytotoxicity at 72 h, 33.33 µM [1] was 36.9%. It also gave a cytotoxicity at 72 h, 100 µM [1] of 38.9%, a cytotoxicity at 0.005 µM [2] of 30.4% and a cytotoxicity at 0.015 µM [2] of 34.6%. For the same molecule, the cytotoxicity at 0.045 µM [2] was 37.4%, the cytotoxicity at 0.13 µM [2] was 40.1% and the cytotoxicity at 0.41 µM [2] was 43.6%. For the same molecule, the cytotoxicity at 1.23 µM [2] was 45.1%, the cytotoxicity at 3.7 µM [2] was 49.3% and the cytotoxicity at 11.11 µM [2] was 52.1%. It also gave a cytotoxicity at 33.33 µM [2] of 56.9%, a cytotoxicity at 100 µM [2] of 61.4% and a cytotoxicity at 72 h, 0.015 µM [3] of 33.2%. For the same molecule, the cytotoxicity at 0.005 µM [4] was 33%, the cytotoxicity at 0.045 µM [4] was 34.6% and the cytotoxicity at 0.13 µM [4] was 35.3%. The cytotoxicity at 0.41 µM [4] was 36.1%, the cytotoxicity at 1.23 µM [4] was 37% and the cytotoxicity at 3.7 µM [4] was 39.1%. The cytotoxicity at 11.11 µM [4] was 42.7%, the cytotoxicity at 33.33 µM [4] was 45.4% and the cytotoxicity at 100 µM [4] was 52.4%. The “cytotoxic activity compared with all synthesized compounds” value [5] was “more potent” and the melting point was 261 to 263 °C.
